What was measured:
Assay type in all cases: in vivo
[1] = system: CYPERUS SEROTINUS, ROTTB.; experiment: Preemergence weed control under flooded paddy conditions, CYPSE (Flatsedge); settings: preemergence, 3-4 weeks after treatment
Procedure, shortened: (§1)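 Visual 0-9 score (stand, vigor, malformation, size, chlorosis, appearance vs untreated control) taken 3-4 wk after treatment. Test compounds were added into flood water (1.5-3 cm over silt loam) as 50/50 v/v aqueous/acetone, equivalent to about 0.5-0.063 kg/ha a.i.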

[2] = system: ECHINOCHLOA ORYZOIDES (ARD.)FRITSCH; experiment: Preemergence weed control under flooded paddy conditions, ECHORC (Watergrass (Calif.)); settings: preemergence, 3-4 weeks after treatment
Procedure, shortened: as §1

[3] = system: SETARIA VIRIDIS, (L) BEAU; experiment: Preemergence herbicidal evaluation, SETVI (Foxtail, Green); settings: rated four to five weeks after treatment
Description: (§2) Results of herbicide evaluation are expressed on a rating scale (0-9). The scale is based upon a visual observation of plant stand, vigor, malformation, size, chlorosis and overall plant appearance as compared with a control.
(§3) The preemergence herbicidal activity of the test compounds of the present invention is exemplified by the following tests in which the seeds of a variety of monocotyledonous and dicotyledonous plants are separately mixed with potting soil and planted on top of approximately one inch of soil in separate pint cups. […] The treated cups are then placed on greenhouse benches, watered and cared for in accordance with conventional greenhouse procedures. From four to five weeks after treatment, the tests are terminated and each cup is examined and rated according to the rating system provided in Example 40.
(§4) The compounds evaluated are reported by compound number given in Example 40.

CHENOPODIUM ALBUM, L. = experiment: Preemergence herbicidal evaluation, CHEAL (Lambsquarters, Common); settings: rated four to five weeks after treatment
Procedure, shortened: (§5)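 Seeds sown in potting soil cups, then sprayed preemergence with aqueous acetone compound solution at about 0.125 to 0.50 kg per hectare. Greenhouse-grown, rated 4–5 weeks after treatment on a 0–9 visual scale against control.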

ZEA MAYS L. = experiment: Preemergence herbicidal evaluation, ZEAMX (Corn, Field); settings: rated four to five weeks after treatment
Procedure, shortened: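 Preemergence herbicidal activity on field corn: seeds in potting soil were sown atop roughly one inch of soil in separate pint cups, treated, and grown under standard greenhouse care. Four to five weeks post-treatment, stand, vigor, malformation, size, chlorosis and overall appearance were compared with a control and scored 0-9.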

CASSIA OBTUSIFOLIA, L. = experiment: Preemergence herbicidal evaluation, CASOB (Sicklepod); settings: rated four to five weeks after treatment
Procedure, shortened: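 Preemergence herbicidal activity against sicklepod was assessed by planting seed mixed with potting soil atop about one inch of soil in pint cups. After treatment the cups were watered and handled per standard greenhouse practice. Tests ended four to five weeks later, with plant stand, vigor, malformation, size, chlorosis and overall appearance scored 0-9 relative to a control.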

IPOMOEA SPP. = experiment: Preemergence herbicidal evaluation, IPOSS (Morningglory spp.); settings: rated four to five weeks after treatment
Description: as §2, §3, §4

[4] = system: ORYZA SATIVA, L. TEBONNET; experiment: Rice tolerance to post-transplant applications under flooded paddy conditions, ORYSAT (Rice, Tebonnet); settings: post-transplant rice, 3-4 weeks after treatment
Procedure, shortened: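 Visual 0-9 rating against untreated control (stand, vigor, malformation, size, chlorosis, overall appearance), taken 3-4 weeks after treatment. Flooded silt loam, water at 1.5-3 cm; two 10-day-old seedlings per pot; compound applied to flooded soil surface 3 days post-transplant at ~0.5-0.063 kg/ha.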

[5] = system: ORYZA SATIVA, L. TEBONNET; experiment: Preemergence herbicidal evaluation, ORYSAT (Rice, Tebonnet); settings: rated four to five weeks after treatment
Description: as §2, §3, §4

SAGITTARIA PYGMAEA, L. = experiment: Preemergence weed control under flooded paddy conditions, SAGPY (Arrowhead (Pygmaea)); settings: preemergence, 3-4 weeks after treatment
Procedure, shortened: as §1

[6] = system: GLYCINE MAX(L) MERR. CV. WILLIAMS; experiment: Preemergence herbicidal evaluation, GLXMAW (Soybean, Williams); settings: rated four to five weeks after treatment
Procedure, shortened: as §5

[7] = system: ECHINOCHLOA CRUS-GALLI, (L) BEAU; experiment: Preemergence herbicidal evaluation, ECHCG (Barnyardgrass); settings: rated four to five weeks after treatment
Procedure, shortened: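 In this preemergence herbicide test, cups holding seeds of ECHCG sown in potting soil over roughly one inch of soil were treated and then grown under conventional greenhouse care. Tests were ended four to five weeks after treatment, and injury was scored 0-9 from stand, vigor, malformation, size, chlorosis and overall appearance relative to a control.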

For COC(=O)Cn1c(=O)[nH]c(=O)n(-c2cc(Oc3ccc(Cl)cc3Cl)ccc2[N+](=O)[O-])c1=O [Compound 14, Methyl 3-[5-(2,4-dichlorophenoxy)-2-nitrophenyl]tetrahydro-2,4,6-trioxo-s-triazine-1(2H)-acetate], the “Herbicidal effect rating, CYPSE” value ([1]; 0.063 kg/ha) was 0.0, the “Herbicidal effect rating, CYPSE” value ([1]; 0.125 kg/ha) was 0.0 and the “Herbicidal effect rating, CYPSE” value ([1]; 0.250 kg/ha) was 0.0. The “Herbicidal effect rating, CYPSE” value ([1]; 0.500 kg/ha) was 0.0, the “Herbicidal effect rating, ECHORC” value ([2]; 0.063 kg/ha) was 0.0 and the “Herbicidal effect rating, ECHORC” value ([2]; 0.125 kg/ha) was 0.0. For the same molecule, the “Herbicidal effect rating, ECHORC” value ([2]; 0.250 kg/ha) was 0.0, the “Herbicidal effect rating, ECHORC” value ([2]; 0.500 kg/ha) was 0.0 and the SETVI herbicidal rating ([3]; Rate 0.125 kg/ha) was 0.0. For the same molecule, the SETVI herbicidal rating ([3]; Rate 0.250 kg/ha) was 0.0, the SETVI herbicidal rating ([3]; Rate 0.500 kg/ha) was 0.0 and the CHEAL herbicidal rating (CHENOPODIUM ALBUM, L.; Rate 0.125 kg/ha) was 9.0. For the same molecule, the CHEAL herbicidal rating (CHENOPODIUM ALBUM, L.; Rate 0.250 kg/ha) was 9.0, the CHEAL herbicidal rating (CHENOPODIUM ALBUM, L.; Rate 0.500 kg/ha) was 9.0 and the ZEAMX herbicidal rating (ZEA MAYS L.; Rate 0.125 kg/ha) was 0.0. The ZEAMX herbicidal rating (ZEA MAYS L.; Rate 0.250 kg/ha) was 0.0, the ZEAMX herbicidal rating (ZEA MAYS L.; Rate 0.500 kg/ha) was 0.0 and the CASOB herbicidal rating (CASSIA OBTUSIFOLIA, L.; Rate 0.125 kg/ha) was 0.0. It also gave a CASOB herbicidal rating (CASSIA OBTUSIFOLIA, L.; Rate 0.250 kg/ha) of 0.0, a CASOB herbicidal rating (CASSIA OBTUSIFOLIA, L.; Rate 0.500 kg/ha) of 0.0 and an IPOSS herbicidal rating (IPOMOEA SPP.; Rate 0.125 kg/ha) of 0.0. For the same molecule, the IPOSS herbicidal rating (IPOMOEA SPP.; Rate 0.250 kg/ha) was 0.0, the IPOSS herbicidal rating (IPOMOEA SPP.; Rate 0.500 kg/ha) was 0.0 and the “Herbicidal effect rating, ORYSAT” value ([4]; 0.063 kg/ha) was 0.0. For the same molecule, the “Herbicidal effect rating, ORYSAT” value ([4]; 0.125 kg/ha) was 0.0, the “Herbicidal effect rating, ORYSAT” value ([4]; 0.250 kg/ha) was 0.0 and the “Herbicidal effect rating, ORYSAT” value ([4]; 0.500 kg/ha) was 0.0. The ORYSAT herbicidal rating ([5]; Rate 0.125 kg/ha) was 1.0, the ORYSAT herbicidal rating ([5]; Rate 0.250 kg/ha) was 1.0 and the ORYSAT herbicidal rating ([5]; Rate 0.500 kg/ha) was 1.0. For the same molecule, the “Herbicidal effect rating, SAGPY” value (SAGITTARIA PYGMAEA, L.; 0.063 kg/ha) was 0.0, the “Herbicidal effect rating, SAGPY” value (SAGITTARIA PYGMAEA, L.; 0.125 kg/ha) was 0.0 and the “Herbicidal effect rating, SAGPY” value (SAGITTARIA PYGMAEA, L.; 0.250 kg/ha) was 0.0. The “Herbicidal effect rating, SAGPY” value (SAGITTARIA PYGMAEA, L.; 0.500 kg/ha) was 0.0, the GLXMAW herbicidal rating ([6]; Rate 0.125 kg/ha) was 0.0 and the GLXMAW herbicidal rating ([6]; Rate 0.250 kg/ha) was 0.0. It also gave a GLXMAW herbicidal rating ([6]; Rate 0.500 kg/ha) of 0.0, an ECHCG herbicidal rating ([7]; Rate 0.125 kg/ha) of 0.0 and an ECHCG herbicidal rating ([7]; Rate 0.250 kg/ha) of 0.0. The ECHCG herbicidal rating ([7]; Rate 0.500 kg/ha) was 0.0.

Reference: patent EP0745595A1, “3-(3-Aryloxyphenyl)-1-(substituted methyl)-s-triazine-2,4,6-oxo or thiotrione herbicidal agents” (American Cyanamid Company, priority 1995, dated 1996)
